Laboratory results as given in paper PMC8145986, “In Vitro Enzymatic and Kinetic Studies, and In Silico Drug-Receptor Interactions, and Drug-Like Profiling of the 5-Styrylbenzamide Derivatives as Potential Cholinesterase and β-Secretase Inhibitors with Antioxidant Properties” (Antioxidants, 2021).

Experiments:
[1] = DPPH radical scavenging assay; settings: read-out: IC50 (SD) DPPH
Protocol: The antioxidant activities of the test compounds against ascorbic acid (Sigma Aldrich, Saint Louis, MO, USA) as a positive control were evaluated using a 2,2-diphenyl-1-picrylhydrazyl (DPPH) radical scavenging assay developed by Zhu et al., as described in our previous study. Duplicate solutions (20 μL) of the test compounds and ascorbic acid in DMSO (final concentrations: 5, 10, 25, 50, and 100 μM) were added into each designated well of a 96-well plate. A solution of DPPH (0.20 mM) (20 μL) in methanol was added to each well, and the 96-well plate was wrapped with aluminium foil and incubated in the dark for 45 min. Five absorbance readings were recorded at 512 nm using a Varioskan flash microplate spectrophotometer reader. The average values obtained from the absorbance readings were used to determine the IC50 and standard deviation values.

[2] = Nitric oxide radical scavenging assay (Griess reaction); settings: NO radical scavenging
Protocol: Nitric oxide was generated from sodium nitroprusside and measured by Griess’ reaction following the literature method. The experiment was done in triplicate with ascorbic acid (vitamin C) used as a positive control for the assay. In total, 50 μL of each of the test compounds and the positive control at various concentrations (0.1, 0.5, 1.0, 5.0, and 10.0 μM in methanol) were added to each designated well of the 96 well plate. A total of 50 μL of sodium nitroprusside (10 mM) prepared in saline phosphate buffer (pH = 7.4) was then added to each well and the reaction mixture incubated at room temperature for 3 h. Afterward, 300 μL of the Griess reagent (a mixture of 0.2% N-(1-naphthyl)ethylenediamine dihydrochloride and 2% sulfanilamide in […]) was added to each well and absorbance was read at 546 nm using a Varioskan flash microplate spectrophotometer reader.

[3] = target: T1, AChE (Homo sapiens, UniProt P22303); experiment: biochemical; settings: mean ± SD of three independent experiments
T1 construct: purchased BioLegend (via Biocom Africa (Pty) Ltd.)
T1 sequence (P22303 32-614): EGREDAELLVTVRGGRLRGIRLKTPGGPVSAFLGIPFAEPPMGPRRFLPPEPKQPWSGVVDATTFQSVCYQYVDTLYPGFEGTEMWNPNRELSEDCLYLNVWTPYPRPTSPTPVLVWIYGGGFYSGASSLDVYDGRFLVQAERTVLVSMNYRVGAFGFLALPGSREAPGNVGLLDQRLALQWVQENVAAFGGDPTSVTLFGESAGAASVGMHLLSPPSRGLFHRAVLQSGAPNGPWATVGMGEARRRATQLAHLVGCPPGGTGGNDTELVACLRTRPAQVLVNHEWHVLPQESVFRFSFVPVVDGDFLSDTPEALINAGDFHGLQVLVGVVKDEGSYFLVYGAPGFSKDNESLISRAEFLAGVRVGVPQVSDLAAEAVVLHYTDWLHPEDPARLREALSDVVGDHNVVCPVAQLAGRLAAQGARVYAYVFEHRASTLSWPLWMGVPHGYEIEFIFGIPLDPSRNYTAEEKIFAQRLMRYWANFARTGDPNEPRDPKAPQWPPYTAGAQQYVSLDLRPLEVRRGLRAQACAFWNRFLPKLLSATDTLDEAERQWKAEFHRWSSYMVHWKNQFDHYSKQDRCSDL
Protocol: (§1) The melting point values of the test compounds were recorded on a Thermocouple digital melting point apparatus (Mettler Toledo LLC, Columbus, OH, USA). The infrared (IR) spectra were recorded using the thin-film method on a Bruker VERTEX 70 FT-IR Spectrometer (Bruker Optics, Billerica, MA, USA) equipped with an ATR (diamond attenuated total reflectance) accessory. Merck kieselgel 60 (0.063–0.200 mm) (Merck KGaA, Frankfurt, Germany) was used as a stationary phase for column chromatography. The ^1H-NMR and ^13C-NMR spectra of the prepared compounds were obtained as deuterated dimethyl sulfoxide ((CD3)2SO) solutions using Agilent 500 MHz NMR spectrometer (Agilent Technologies, Oxford, UK) operating at 500 MHz and 125 MHz for ^1H and ^13C, respectively. The chemical shifts are quoted relative to tetramethylsilane (TMS) used as an internal reference standard (δ = 0.00 ppm) or a residual protonated solvent. The high-resolution mass spectra were recorded at an ionization potential of 70 eV using Micromass Autospec-TOF (double focusing high resolution) instrument (Waters Corp., Milford, MA, USA). The synthesis and analytical data for 2-amino-5-iodobenzamide (1) have been reported in our previous study. Recombinant human AChE (BioLegend) and BChE (Cloud-Clone Corp.) were purchased via Biocom Africa (Pty) Ltd. (Centurion, Pretoria, South Africa).
(§2) AChE and BChE were used to determine cholinesterase activities spectrophotometrically using […] as substrates, respectively, following a modification of the Ellman’s method, as described in our previous study, and the reactions were performed in triplicate at 37 °C in a 96-well plate. […] A multi-channel pipette was used for the addition of reagents to the wells.
To each well of a 96-well plate, 8.0 μL solution of the test compound, 2.0 μL of AChE (0.04 mg/mL), and 70 μL of Tris buffer (C4H11NO3, 50 mM, pH 7.7) were added sequentially. The assay mixture was pre-incubated for 30 min at room temperature, which was followed by the addition of 10 μL of 5,5′-dithiobis-(2-nitrobenzoic acid) (DTNB, 3 mM in Tris buffer, 50 mM, pH 7.7) and 10 μL of […] (AChI, 5 mM in tris buffer, 50 mM, pH 7.7) to each well to initiate the reaction. […] The average values obtained from the absorbance readings were used to determine the IC50 and standard deviation values using the Graph Pad Prism (version 5.0, GraphPad software Inc., San Diego, CA, USA).

[4] = target: T2, BChE (Homo sapiens, UniProt P06276); experiment: biochemical; settings: mean ± SD of three independent experiments
T2 construct: purchased Cloud-Clone Corp. (via Biocom Africa (Pty) Ltd.)
T2 sequence (P06276 29-602): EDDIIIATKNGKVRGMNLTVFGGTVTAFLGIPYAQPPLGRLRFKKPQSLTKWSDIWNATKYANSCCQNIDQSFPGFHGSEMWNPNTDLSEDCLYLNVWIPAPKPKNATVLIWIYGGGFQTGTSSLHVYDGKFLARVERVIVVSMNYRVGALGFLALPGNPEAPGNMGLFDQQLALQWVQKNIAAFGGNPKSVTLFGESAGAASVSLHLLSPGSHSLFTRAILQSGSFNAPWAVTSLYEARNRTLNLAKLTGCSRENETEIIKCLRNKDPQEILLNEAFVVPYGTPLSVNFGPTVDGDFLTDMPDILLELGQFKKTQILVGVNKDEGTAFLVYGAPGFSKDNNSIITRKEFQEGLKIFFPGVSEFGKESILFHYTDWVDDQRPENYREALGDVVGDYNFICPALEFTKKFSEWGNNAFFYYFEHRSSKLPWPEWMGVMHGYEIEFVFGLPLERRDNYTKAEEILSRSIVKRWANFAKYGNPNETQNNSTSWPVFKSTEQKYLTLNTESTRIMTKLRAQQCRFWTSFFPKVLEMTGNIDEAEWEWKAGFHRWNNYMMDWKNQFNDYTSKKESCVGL
Protocol: as §1, §2
A total of 8.0 μL of the test compound and 2.0 μL of BChE (0.02 mg/mL) was added to each of the designated wells of the 96-well plate, and the mixtures were incubated at room temperature for 30 min. Tris buffer (70 μL) was added to each well containing the reaction mixture and incubation was continued for a further 10 min at this temperature, which was followed by the addition of 10 μL solution of 5,5′-dithiobis-(2-nitrobenzoic acid) (DTNB) (3 mM in Tris buffer, 50 mM, pH 7.7) and butyrylcholine iodide (5 mM in Tris buffer, 50 mM, pH 7.7) to each well to initiate the reaction. […] The IC50 and standard deviation values using the Graph Pad Prism.

[5] = target: T3, β-secretase (Homo sapiens, UniProt P56817); experiment: β-Secretase (BACE-1) inhibition assay; format: biochemical; settings: mean ± SD of three independent experiments
T3 construct: purchased Thermo Fisher Scientific Corporation; host or cells: baculovirus-expressed
T3 sequence (P56817 46-501): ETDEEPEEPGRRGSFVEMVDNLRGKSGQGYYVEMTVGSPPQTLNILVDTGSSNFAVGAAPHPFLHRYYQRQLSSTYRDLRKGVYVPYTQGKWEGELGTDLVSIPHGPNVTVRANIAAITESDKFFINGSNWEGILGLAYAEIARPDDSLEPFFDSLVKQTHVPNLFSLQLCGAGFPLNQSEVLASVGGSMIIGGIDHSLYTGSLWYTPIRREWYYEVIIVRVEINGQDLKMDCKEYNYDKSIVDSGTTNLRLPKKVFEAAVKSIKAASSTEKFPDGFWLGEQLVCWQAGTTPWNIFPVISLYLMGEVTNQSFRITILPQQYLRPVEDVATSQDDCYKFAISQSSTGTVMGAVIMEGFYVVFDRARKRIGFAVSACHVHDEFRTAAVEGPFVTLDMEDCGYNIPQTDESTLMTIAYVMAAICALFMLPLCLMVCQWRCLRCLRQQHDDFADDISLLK
Protocol: The β-secretase inhibitory activities of the test compounds were assayed in triplicates in 96-well plates using a recombinant baculovirus-expressed β-secretase and a specific substrate (Rh-[…]-Quencher), according to the manufacturer’s (Thermo Fisher Scientific Corporation, Johannesburg, Gauteng, South Africa) instructions, as described in our previous study. […] To each well, 2.0 μL human recombinant β-secretase (1.0 U/mL) was added to start the reaction and the reaction mixture was incubated for 60 min at room temperature. […] The IC50 and standard deviation values of both the test compounds and reference standard were calculated using the Graph Pad Prism.

[6] = in vitro
Protocol: (§3) The cytotoxicity activity of the compounds was evaluated using the 3-(4,5-dimethylthiazol-2-yl)-2,5-diphenyltetrazolium bromide (MTT) assay following a modification of a method by Mosmann. Normal monkey kidney cells (Vero cells) and adeno-carcinomic human epithelial cells (A549 cells) were maintained in Dulbecco’s modified Eagle’s medium (DMEM, Gibco) supplemented with 10% fetal bovine serum (FBS) and 1% penicillin/streptomycin in culture flasks and incubated at 37 °C in 5% CO2. […] Cells were seeded at 1 × 10^5 cells/well and incubated overnight to allow cell attachment. After 24 h, treatments were administered with different concentrations (0, 2.5, 5, 10, 25, 50, and 100 μM) of the compounds and doxorubicin (positive control). After 24 h of incubation, 20 μL of the MTT solution (5 mg/mL) was added in all the wells, which was followed by 4 h of incubation.

[7] = in vitro; settings: human
Protocol: as §3

[8] = system: A549 cells; experiment: LPS-induced ROS production in A549 cells (H2DCF-DA); format: cell-based, human; settings: 10 μM compound, LPS 1 μg/mL, 24 h (Figure 9b)
Protocol: (§4) Mitochondrial ROS levels in Vero and A549 cell lines was measured using the 2′,7′-dichlorofluorescin diacetate (H2DCF-DA) (Sigma-Aldrich, St. Louis, MO, USA, Merck, Darmstadt, Germany), fluorescent probe. Cells (1 × 10^5) were seeded in 96 well plates and incubated overnight at 37 °C in 5% CO2. A minimum non-toxic concentration (10 μM) of compounds (2a and 3b) was added separately as treatment and further incubated for an hour, after which LPS (1 μg/mL) was added to induce the production of ROS. After 24 h of incubation, the media was aspirated, cells were rinsed with PBS, and followed by the addition of H2DCF-DA (10 μM) for 30 min in the dark. The absorbance of the fluorescence was measured using a microplate reader (VarioSkan Flash, Thermo Fisher Scientific, Finland) at 485 and 535 nm values of excitation and emission, respectively. Data was processed and analysed using ANOVA, which was followed by Duncan’s multiple comparison test.

[9] = system: Vero cells; experiment: LPS-induced ROS production in Vero cells (H2DCF-DA); format: cell-based, monkey; settings: 10 μM compound, LPS 1 μg/mL, 24 h (Figure 9a)
Protocol: as §4

[10] = system: BChE; parameters: method as in PMID 23722618; settings: cited from earlier work

`NC(=O)c1cc(/C=C/c2ccc(Cl)cc2)ccc1N` [Compound 2c, (E)-2-Amino-5-(4-chlorostyryl)benzamide] gave an IC50 [1] of 11.3 ± 0.11 µM, an IC50 [2] of 9.3 ± 0.13 µM and an IC50 [3] of 8.6 ± 0.42 µM. The IC50 [4] was 18.9 ± 0.24 µM and the IC50 [5] was 6.7 ± 0.18 µM.

For `COc1ccc(/C=C/c2ccc(N)c(C(N)=O)c2)cc1` [Compound 2d, (E)-2-Amino-5-(4-methoxystyryl)benzamide], the IC50 [1] was 20.8 ± 0.24 µM, the IC50 [2] was 11.2 ± 0.22 µM and the IC50 [3] was 7.8 ± 0.3 µM. The IC50 [4] was 14.6 ± 0.47 µM and the IC50 [5] was 17.2 ± 0.31 µM.

For `COc1ccc(/C=C/c2ccc(NS(=O)(=O)c3ccc(C)cc3)c(C(N)=O)c2)cc1` [Compound 3d, (E)-5-(4-Methoxystyryl)-2-[[(4-methylphenyl)sulfonyl]amino]benzamide], the IC50 [1] was 9.1 ± 0.26 µM, the IC50 [2] was 12.3 ± 0.31 µM and the IC50 [3] was 11.3 ± 0.23 µM. The IC50 [4] was 13.3 ± 0.26 µM and the IC50 [5] was 19.3 ± 0.24 µM.

For `Cc1ccc(S(=O)(=O)Nc2ccc(/C=C/c3ccccc3)cc2C(N)=O)cc1` [Compound 3a, (E)-5-Styryl-2-[[(4-methylphenyl)sulfonyl]amino]benzamide], the IC50 [1] was 19.4 ± 0.4 µM, the IC50 [2] was 13.1 ± 0.43 µM and the IC50 [3] was 9.5 ± 0.53 µM. It also gave an IC50 [4] of 10.8 ± 0.4 µM and an IC50 [5] of 16.5 ± 0.31 µM.

Work on `NC(=O)c1cc(/C=C/c2ccc(F)cc2)ccc1N` [Compound 2b, (E)-2-Amino-5-(4-fluorostyryl)benzamide] yielded an IC50 [1] of 12.9 ± 0.22 µM, an IC50 [2] of 15.8 ± 0.3 µM and an IC50 [3] of 5.4 ± 0.12 µM. It also gave an IC50 [4] of 19.7 ± 0.25 µM and an IC50 [5] of 13.9 ± 0.25 µM.

For `COc1cccc2c1C(=O)c1c(O)c3c(c(O)c1C2=O)C[C@@](O)(C(=O)CO)C[C@@H]3O[C@H]1C[C@H](N)[C@H](O)[C@H](C)O1` [Doxorubicin, reference compound], the IC50 at 24 h [6] was 0.66 ± 0.12 µM and the IC50 at 24 h [7] was 1.14 ± 0.23 µM.

Molecule `Cc1ccc(S(=O)(=O)Nc2ccc(/C=C/c3ccc(Cl)cc3)cc2C(N)=O)cc1` [Compound 3c, (E)-5-(4-Chlorostyryl)-2-[[(4-methylphenyl)sulfonyl]amino]benzamide] has an IC50 [1] of 22.4 ± 0.51 µM, an IC50 [2] of 8.6 ± 0.3 µM and an IC50 [3] of 7.8 ± 0.21 µM. The IC50 [4] was 6.9 ± 0.1 µM and the IC50 [5] was 15 ± 0.16 µM.

Work on `O=C1O[C@H]([C@@H](O)CO)C(O)=C1O` [Ascorbic acid, reference compound] yielded an IC50 ([1]; listed as ascorbic acid) of 4.2 µM, an IC50 [1] of 4.18 ± 0.13 µM and an IC50 [2] of 6.23 ± 0.13 µM. The IC50 ([2]; listed as ascorbic acid) was 6.2 µM.

`Cc1ccc(S(=O)(=O)Nc2ccc(/C=C/c3ccc(F)cc3)cc2C(N)=O)cc1` [Compound 3b, (E)-5-(4-Fluorostyryl)-2-[[(4-methylphenyl)sulfonyl]amino]benzamide] gave an IC50 [1] of 25.6 ± 0.3 µM, an IC50 at 24 h ([6]; monkey, Vero cells (normal monkey kidney cells)) of 191.4 ± 0.6 µM and an IC50 [3] of 4.3 ± 0.48 µM. The “ROS reduction (in words)” value [8] was “significant ROS reduction”, the IC50 at 24 h ([7]; A549 cells (adeno-carcinomic human epithelial cells)) was 55 ± 0.11 µM and the “suppression of LPS-induced ROS” value [9] was about 40%. It also gave an IC50 [4] of 8.1 ± 0.52 µM and an IC50 [5] of 10.1 ± 0.18 µM.

In the case of `Oc1ccccc1/C=C/c1cc(O)c(F)c(O)c1` [C], the “fold more active and selective against BChE than against AChE” value [10] is given as 94 fold.
